According to US10987359B2, “Oxadiazepinone derivatives and methods of treating hepatitis B infections” (priority 2016, dated 2021):

Tested on: HBV
Assay: HBV replication inhibition assay (BDNA assay) in HepG2.2.15 cells
Format: cell-based
Conditions: HBV replication assay (BDNA assay), HepG2.2.15 cells; read-out: DNA EC50
Method in brief: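 Supernatant encapsidated HBV DNA was measured by bDNA after DNase digestion and proteinase K release. Stably HBV-integrated HepG2.2.15 cells had two 3-day compound exposures (0.5% DMSO). Signals were background-subtracted and normalized to DMSO wells, and EC50 was obtained by four-parameter fit.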

C[C@@H]1Cc2nn3c(c2CN1C(=O)Nc1ccc(F)c(C#N)c1)C(=O)N(C)OC(CN(C)C)C3 (stereo in doubt) [Compound 096_D2, (4R*,9R)—N-(3-cyano-4-fluorophenyl)-4-((dimethylamino)methyl)-2,9-dimethyl-1-oxo-1,4,5,8,9,11-hexahydropyrido[4′,3′:3,4]pyrazolo[5,1-d][1,2,5]oxadiazepine-10(2H)-carboxamide] and C[C@@H]1Cc2nn3c(c2CN1C(=O)Nc1ccc(F)c(Cl)c1)C(=O)N(C)OC(CF)C3 (single isomer, unassigned) [Compound 088_E2, (4R*,9R)—N-(3-chloro-4-fluorophenyl)-4-(fluoromethyl)-2,9-dimethyl-1-oxo-1,4,5,8,9,11-hexahydropyrido[4′,3′:3,4]pyrazolo[5,1-d][1,2,5]oxadiazepine-10(2H)-carboxamide] fall in the same range of EC50: 1 to 100 nM for the first, 1 to 100 nM for the second.

First: C[C@@H]1Cc2nn3c(c2CN1C(=O)Nc1cc(Cl)c(F)cc1F)C(=O)N(C)OC(CN(C)C)C3 (stereo in doubt) [Compound 099_D2, (4R*,9R)—N-(5-chloro-2,4-difluorophenyl)-4-((dimethylamino)methyl)-2,9-dimethyl-1-oxo-1,4,5,8,9,11-hexahydropyrido[4′,3′:3,4]pyrazolo[5,1-d][1,2,5]oxadiazepine-10(2H)-carboxamide]
Second: C[C@@H]1Cc2nn3c(c2CN1C(=O)Nc1ccc(F)c(Br)c1)C(=O)N(C)OC(COCC(F)F)C3 (stereo in doubt) [Compound 122_D2, (4R*,9R)—N-(3-bromo-4-fluorophenyl)-4-((2,2-difluoroethoxy)methyl)-2,9-dimethyl-1-oxo-1,4,5,8,9,11-hexahydropyrido[4′,3′:3,4]pyrazolo[5,1-d][1,2,5]oxadiazepine-10(2H)-carboxamide]
The EC50 of the first is higher: 100 to 500 nM for the first, 1 to 100 nM for the second. The second is the more potent here.

Compared with CN1OC(CO)Cn2nc3c(c2C1=O)CN(C(=O)Nc1ccc(F)c(C(F)(F)F)c1)CC3 (single isomer, unassigned) [Compound 011_E2, (R*)—N-(4-fluoro-3-(trifluoromethyl)phenyl)-4-(hydroxymethyl)-2-methyl-1-oxo-1,4,5,8,9,11-hexahydropyrido[4′,3′:3,4]pyrazolo[5,1-d][1,2,5]oxadiazepine-10(2H)-carboxamide], C[C@@H]1Cc2nn3c(c2CN1C(=O)Nc1ccc(F)c(C(F)(F)F)c1)C(=O)N(C)OC(COCC(F)F)C3 (stereo in doubt) [Compound 126_D1, (4S*,9R)-4-((2,2-difluoroethoxy)methyl)-N-(4-fluoro-3-(trifluoromethyl)phenyl)-2,9-dimethyl-1-oxo-1,4,5,8,9,11-hexahydropyrido[4′,3′:3,4]pyrazolo[5,1-d][1,2,5]oxadiazepine-10(2H)-carboxamide] is higher in EC50: 1 to 100 nM for the first, 100 to 500 nM for the second.

In the case of C[C@@H]1Cc2nn3c(c2CN1C(=O)Nc1ccc(F)c(Br)c1)C(=O)N(C)OC(CNCC(F)F)C3 (stereo in doubt) [Compound 184_D2, (4R*,9R)—N-(3-bromo-4-fluorophenyl)-4-(((2,2-difluoroethyl)amino)methyl)-2,9-dimethyl-1-oxo-1,4,5,8,9,11-hexahydropyrido[4′,3′:3,4]pyrazolo[5,1-d][1,2,5]oxadiazepine-10(2H)-carboxamide], the EC50 is reported as 1 to 100 nM.

Same assay, conditions: Hepatitis B virus, HepG2.2.15, HBV replication assay (BDNA assay), HepG2.2.15 cells; read-out: DNA EC50

First: CN1O[C@H](C[S@+](C)[O-])Cn2nc3c(c2C1=O)CN(C(=O)Nc1ccc(F)c(Cl)c1)CC3 (stereo in doubt) [Compound 049_E1, (S*)—N-(3-chloro-4-fluorophenyl)-2-methyl-4-(((S*)-methylsulfinyl)methyl)-1-oxo-1,4,5,8,9,11-hexahydropyrido[4′,3′:3,4]pyrazolo[5,1-d][1,2,5]oxadiazepine-10(2H)-carboxamide]
Second: Cc1cc(NC(=O)N2CCc3nn4c(c3C2)C(=O)N(C)OC(CF)C4)ccc1F (single isomer, unassigned) [Compound 043_E1, (S*)—N-(4-fluoro-3-methylphenyl)-4-(fluoromethyl)-2-methyl-1-oxo-1,4,5,8,9,11-hexahydropyrido[4′,3′:3,4]pyrazolo[5,1-d][1,2,5]oxadiazepine-10(2H)-carboxamide]
The EC50 of the first is higher: 100 to 500 nM for the first, 1 to 100 nM for the second. The second is the more potent here.

Cc1cc(NC(=O)N2Cc3c(nn4c3C(=O)N(C)OC(COCC(F)F)C4)C[C@H]2C)ccc1F (stereo in doubt) [Compound 125_D1, (4S*,9R)-4-((2,2-difluoroethoxy)methyl)-N-(4-fluoro-3-methylphenyl)-2,9-dimethyl-1-oxo-1,4,5,8,9,11-hexahydropyrido[4′,3′:3,4]pyrazolo[5,1-d][1,2,5]oxadiazepine-10(2H)-carboxamide] and C[C@@H]1Cc2nn3c(c2CN1C(=O)Nc1ccc(F)c(C(F)(F)F)c1)C(=O)N(C)OC(CN)C3 (stereo in doubt) [Compound 116_D1, (4S*,9R)-4-(aminomethyl)-N-(4-fluoro-3-(trifluoromethyl)phenyl)-2,9-dimethyl-1-oxo-1,4,5,8,9,11-hexahydropyrido[4′,3′:3,4]pyrazolo[5,1-d][1,2,5]oxadiazepine-10(2H)-carboxamide] fall in the same range of EC50: 1 to 100 nM for the first, 1 to 100 nM for the second.

Cc1ccc(Br)cc1NC(=O)N1CCc2nn3c(c2C1)C(=O)N(C)OC(CO)C3 (centres unmarked) [Compound 017, N-(5-bromo-2-methylphenyl)-4-(hydroxymethyl)-2-methyl-1-oxo-1,4,5,8,9,11-hexahydropyrido[4′,3′:3,4]pyrazolo[5,1-d][1,2,5]oxadiazepine-10(2H)-carboxamide] and CN1OC(CO)Cn2nc3c(c2C1=O)CN(C(=O)Nc1ccc(F)c(Cl)c1Cl)CC3 (centres unmarked) [Compound 023, N-(2,3-dichloro-4-fluorophenyl)-4-(hydroxymethyl)-2-methyl-1-oxo-1,4,5,8,9,11-hexahydropyrido[4′,3′:3,4]pyrazolo[5,1-d][1,2,5]oxadiazepine-10(2H)-carboxamide] fall in the same range of EC50: 1 to 100 nM for the first, 1 to 100 nM for the second.

C[C@@H]1Cc2nn3c(c2CN1C(=O)Nc1ccc(F)c(C(F)(F)F)c1)C(=O)N(C)OC(C)(C)C3 [Compound 214, (5R)—N-[4-Fluoro-3-(trifluoromethyl)phenyl]-5,11,11,13-tetramethyl-14-oxo-12-oxa-4,8,9,13-tetrazatricyclo[7.5.0.0^2.7]tetradeca-1,7-diene-4-carboxamide] and C[C@@H]1Cc2nn3c(c2CN1C(=O)Nc1ccc(F)c(C(F)(F)F)c1)C(=O)N(C)OC(CNS(C)(=O)=O)C3 (single isomer, unassigned) [Compound 179_D1, (4 S*,9R)—N-(4-fluoro-3-(trifluoromethyl)phenyl)-2,9-dimethyl-4-(methylsulfonamidomethyl)-1-oxo-1,4,5,8,9,11-hexahydropyrido[4′,3′:3,4]pyrazolo[5,1-d][1,2,5]oxadiazepine-10(2H)-carboxamide] fall in the same range of EC50: 1 to 100 nM for the first, 1 to 100 nM for the second.

CN(CC(F)F)C(=O)C1Cn2nc3c(c2C(=O)N(C)O1)CN(C(=O)Nc1ccc(F)c(Cl)c1F)CC3 (centres unmarked) [Compound 158, N10-(3-chloro-2,4-difluorophenyl)-N4-(2,2-difluoroethyl)-N4,2-dimethyl-1-oxo-1,4,5,8,9,11-hexahydropyrido[4′,3′:3,4]pyrazolo[5,1-d][1,2,5]oxadiazepine-4,10(2H)-dicarboxamide] and CN(CC(F)F)C(=O)C1Cn2nc3c(c2C(=O)N(C)O1)CN(C(=O)Nc1cc(Cl)c(F)cc1F)CC3 (centres unmarked) [Compound 159, N10-(5-chloro-2,4-difluorophenyl)-N4-(2,2-difluoroethyl)-N4,2-dimethyl-1-oxo-1,4,5,8,9,11-hexahydropyrido[4′,3′:3,4]pyrazolo[5,1-d][1,2,5]oxadiazepine-4,10(2H)-dicarboxamide] fall in the same range of EC50: 1 to 100 nM for the first, 1 to 100 nM for the second.

CN1OC(CF)Cn2nc3c(c2C1=O)CN(C(=O)Nc1ccc(F)c(C(F)(F)F)c1)CC3 (single isomer, unassigned) [Compound 039_E1, (S*)—N-(4-fluoro-3-(trifluoromethyl)phenyl)-4-(fluoromethyl)-2-methyl-1-oxo-1,4,5,8,9,11-hexahydropyrido[4′,3′:3,4]pyrazolo[5,1-d][1,2,5]oxadiazepine-10(2H)-carboxamide] and CN1OC(CO)Cn2nc3c(c2C1=O)CN(C(=O)Nc1ccc(F)c(C(F)(F)F)c1)CC3 (single isomer, unassigned) [Compound 011_E1, (S*)—N-(4-fluoro-3-(trifluoromethyl)phenyl)-4-(hydroxymethyl)-2-methyl-1-oxo-1,4,5,8,9,11-hexahydropyrido[4′,3′:3,4]pyrazolo[5,1-d][1,2,5]oxadiazepine-10(2H)-carboxamide] fall in the same range of EC50: 1 to 100 nM for the first, 1 to 100 nM for the second.

C[C@@H]1Cc2nn3c(c2CN1C(=O)Nc1ccc(F)c(C#N)c1)C(=O)N(C)N(CC(F)F)CC3 [Compound 221, (R)—N-(3-Cyano-4-fluorophenyl)-3-(2,2-difluoroethyl)-2,9-dimethyl-1-oxo-1,2,3,4,5,8,9,11-octahydro-10H-pyrido[4′,3′:3,4]pyrazolo[5,1-d][1,2,5]triazepine-10-carboxamide] and Cc1cc(NC(=O)N2Cc3c(nn4c3C(=O)N(C)OCC4)C[C@H]2C)ccc1F [Compound 080, (R)—N-(4-fluoro-3-methylphenyl)-2,9-dimethyl-1-oxo-1,4,5,8,9,11-hexahydropyrido[4′,3′:3,4]pyrazolo[5,1-d][1,2,5]oxadiazepine-10(2H)-carboxamide] fall in the same range of EC50: 1 to 100 nM for the first, 1 to 100 nM for the second.

First: C[C@@H]1Cc2nn3c(c2CN1C(=O)Nc1ccc(F)c(Br)c1)C(=O)N(C)N=C(COCC(F)F)C3 [Compound 236, (R)-N-(3-bromo-4-fluorophenyl)-4-((2,2-difluoroethoxy)methyl)-2,9-dimethyl-1-oxo-1,2,5,8,9,11-hexahydro-10H-pyrido[4′,3′:3,4]pyrazolo[5,1-d][1,2,5]triazepine-10-carboxamide]
Second: CC[C@@H]1Cc2nn3c(c2CN1C(=O)Nc1ccc(F)c(Cl)c1)C(=O)N(C)O[C@H](CO)C3 (stereo in doubt) [Compound 109_D2, (4S*,9R*)—N-(3-chloro-4-fluorophenyl)-9-ethyl-4-(hydroxymethyl)-2-methyl-1-oxo-1,4,5,8,9,11-hexahydropyrido[4′,3′:3,4]pyrazolo[5,1-d][1,2,5]oxadiazepine-10(2H)-carboxamide]
The EC50 of the first is lower: 1 to 100 nM for the first, 100 to 500 nM for the second.
